The record followed here is patent US9211278B2, “Composition containing arylnaphthalene lignan derivative for preventing and/or treating dementia” (KOREA INSTITUTE OF SCIENCE AND TECHNOLOGY, priority 2012, dated 2015).

The subject of experiment [1] is beta-amyloid (Aβ40, Aβ42) formation. Put plainly: Beta-amyloid (Aβ40, Aβ42) formation, ELISA, in APP-transfected HeLa cells. Format: cell-based, human. The conditions noted are these: for inhibition of beta-amyloid (Aβ40, Aβ42) formation: HeLa-APP cells, various concentrations (FIGS. 1, 2, 6); for inhibition at 5 µg/mL / inhibition at 1 µM: Homo sapiens, HeLa, read-out: inhibitory effect on the beta-amyloid; for inhibition at 5 µg/mL: 5 μg/ml. Here is the method: To test the inhibitory effect of Justicidin A (C1) obtained in Example 2 on the beta-amyloid formation, HeLa cell line transfected with the amyloid precursor protein (APP) driven from human was cultured in DMEM solution (Cat. #11995, Gibco, USA) for use. The cell line was received from Prof. Tae-Wan Kim at Department of Pathology, Columbia University Medical Center, New York, N.Y. 10032, USA.
Specifically, the Justicidin A of Example 2 was added into the cell line culture at the amount indicated in FIG. 1, and then the produced amount of be-amyloid (Aβ40, Aβ42 was measured. Human β-Amyloid[1-40](Aβ40), Human β-Amyloid [1-42](Aβ42) Colorimetric ELISA kit (#KHB3482 and #KHB3442; BioSource International, Inc., U.S.A.) were used to quantify two types of beta-amyloid (Aβ40, Aβ42).
The 5-methoxyJusticidin A (C2) of Example 2 was added into the cell line culture at the amount indicated in FIG. 2, and then the produced amount of be-amyloid was measured according to the method of Example 1.1. The group which was not treated with 5-methoxyjusticidin A was used as a negative control.
The compounds were used at the amount of FIG. 6, and measured for the beta-amyloid (Aβ40, Aβ42) formation according to the same method of Experimental Example <1-1>. The group treated with Justicidin A(C1) was a positive control and the group with no treatment was a negative control.

The subject of experiment [2] is alpha-secretase product (sAPPα). The experiment can be described thus: Alpha-secretase product (sAPPα) production, Western blotting. Format: cell-based, human. The conditions noted are these: 8 hours, concentrations of FIG. 5. Here is the method:
The test result confirmed that Justicidin A (C1) obtained in Example 2 and 5-methoxyJusticidin A increased alpha-secretase product (sAPPα). Specifically, the produced amount of sAPPα was measured by treating the cultured cell line (the HeLa cell line transfected with the amyloid precursor protein (APP) driven from human) with Justicidin A (S62-C1) or 5-methoxyJusticitdin A (S62-C2) at a concentration of FIG. 5, culturing it for 8 hours, and measuring the produced amount of sAPPα according to the Western blotting. The negative control was the group with no treatment of Justicidin A or 5-methoxyJusticidin A.
Background: Immunoblotting shows a protein as a band on a membrane.

In the case of `COc1ccc(CC2COC(=O)/C2=C/c2ccc3c(c2)OCO3)cc1OC` (stereo not drawn) [succilactone], in experiment [1], the “inhibition of beta-amyloid (Aβ40, Aβ42) formation” value (“inhibition of beta-amyloid” for short) is reported as “did not show nearly the inhibition” and the inhibition at 5 µg/mL was approximately 10%. Take `COc1ccc(-c2c3c(c(O)c4cc5c(cc24)OCO5)COC3=O)cc1OC` [Chinensinaphthol]: in experiment [1], the inhibition at 5 µg/mL was approximately 50%. Turning to `COc1ccc(-c2c3c(c(OC)c4cc5c(cc24)OCO5)C(=O)OC3)cc1OC` [retrochinensinaphthol methyether, Retrochinensinaphthol methylether], the “inhibition of beta-amyloid” value in experiment [1] is on record as “did not show nearly the inhibition”.

As to `COc1c2c(c(-c3ccc4c(c3)OCO4)c3cc4c(cc13)OCO4)C(=O)OC2` [Justicidin F, reference compound], the inhibition at 1 µM in experiment [1] is approximately 20%.

As for `COc1c2c(c(-c3ccc4c(c3)OCO4)c3cc4c(cc13)OCO4)COC2=O` [Justicidin D, reference compound], the inhibition at 1 µM in experiment [1] is approximately 20%. Still for that read-out and setting: the result for `COc1c2c(cc3c(-c4ccc5c(c4)OCO5)c4c(cc13)C(=O)OC4)OCO2` [Justicidin G, reference compound] reads approximately 20%. For the compound `COc1cc2c(-c3ccc4c(c3)OCO4)c3c(c(OC)c2c(OC)c1OC)COC3=O` [5-methoxyJusticidin A], the “formation of alpha-secretase product (sAPPα)” value in experiment [2] is “activated the formation of alpha-secretase product (sAPPα)”. In addition, in experiment [1], the “inhibition of beta-amyloid” value is “inhibited the beta-amyloid (Aβ40, Aβ42) formation at a concentration-dependent manner”.
